Key:
Jak2 = molecular target: T1, Jak2 (Homo sapiens, UniProt O60674); experiment: Jak2 immunoprecipitate kinase assay after preincubation of Z119 cells; format: cell-based; conditions: Z119 cells preincubated for 5 hours; FIG. 24
T1 construct: The cells were lysed in lysis buffer and immunoprecipitated with Jak2 antibody; endogenous in cells; host or cells: Z119 Ph+ ALL cell line (immunoprecipitate after treating the cells)
Description: The cells were lysed in lysis buffer and immunoprecipitated with Jak2 antibody. The precipitates were washed twice with lysis buffer and once with kinase assay buffer, followed by addition of 10 μCi ^33PγATP. The reaction was stopped after 20 min by the addition of SDS-PAGE reducing sample buffer and separated on an 8-16% SDS-PAGE gel. The products were transferred onto nitrocellulose membrane and visualized by autoradiography.

[1] = tested on: Ramos B cell Burkitt's lymphoma cells; experiment: In vitro purging of Ramos cells; format: cell-based; conditions: 50 μM, 5 hours exposure; FIG. 18
Description: For the purging assay, the cells were resuspended in complete medium with or without CR4 as indicated and incubated at 37° C., 5% CO2 for 0-5 hours. Cells were then washed thoroughly with medium to remove the CR4, resuspended and plated in 1 ml volumes, in the absence of exogenous growth factors, into 35 mm petri dishes (Nunc, Gibco) containing RPMI 1640 (Gibco) plus 10% FCS (Cansera Rexdale, ON.) in 0.9% (vol/vol) methylcellulose (Fluka, Switzerland). Cultures were set at 37° C., 5% CO2 in a humidified atmosphere. Colonies consisting of more than 20 cells were counted at 12 days or earlier using an inverted microscope.

T1 sequence (O60674 whole entry): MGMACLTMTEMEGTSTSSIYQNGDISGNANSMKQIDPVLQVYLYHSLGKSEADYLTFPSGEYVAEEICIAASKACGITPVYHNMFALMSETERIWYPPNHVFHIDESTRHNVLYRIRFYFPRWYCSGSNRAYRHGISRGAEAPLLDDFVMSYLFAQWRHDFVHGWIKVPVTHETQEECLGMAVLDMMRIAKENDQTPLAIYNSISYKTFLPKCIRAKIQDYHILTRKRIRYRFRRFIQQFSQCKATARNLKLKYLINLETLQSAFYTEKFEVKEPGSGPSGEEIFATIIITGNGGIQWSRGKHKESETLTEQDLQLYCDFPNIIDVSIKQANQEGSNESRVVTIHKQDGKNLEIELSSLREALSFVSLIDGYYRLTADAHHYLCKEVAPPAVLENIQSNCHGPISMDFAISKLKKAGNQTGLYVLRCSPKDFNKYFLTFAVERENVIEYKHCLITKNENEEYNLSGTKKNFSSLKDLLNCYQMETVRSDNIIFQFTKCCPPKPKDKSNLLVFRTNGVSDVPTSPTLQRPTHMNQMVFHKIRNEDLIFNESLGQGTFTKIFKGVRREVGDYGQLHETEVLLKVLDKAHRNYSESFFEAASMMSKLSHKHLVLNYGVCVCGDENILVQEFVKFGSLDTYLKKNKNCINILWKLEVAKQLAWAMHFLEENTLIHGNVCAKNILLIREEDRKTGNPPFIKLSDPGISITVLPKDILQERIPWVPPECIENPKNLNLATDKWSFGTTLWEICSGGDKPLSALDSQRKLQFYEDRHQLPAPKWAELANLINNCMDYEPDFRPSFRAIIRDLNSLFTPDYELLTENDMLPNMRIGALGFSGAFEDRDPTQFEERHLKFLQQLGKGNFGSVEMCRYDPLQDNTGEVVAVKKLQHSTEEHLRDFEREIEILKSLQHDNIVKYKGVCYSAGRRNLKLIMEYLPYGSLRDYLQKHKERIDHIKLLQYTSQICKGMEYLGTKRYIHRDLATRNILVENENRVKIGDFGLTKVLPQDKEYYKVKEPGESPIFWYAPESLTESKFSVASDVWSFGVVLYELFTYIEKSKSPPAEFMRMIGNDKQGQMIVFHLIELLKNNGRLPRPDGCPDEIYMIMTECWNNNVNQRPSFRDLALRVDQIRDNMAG

For `N#C/C(=C\C=C\c1ccc(O)c(O)c1)C(=O)NCc1ccccc1` [CR4, (E,E)-2-(Benzylaminocarbonyl)-3-(3,4-dihydroxystyryl)acrylonitrile], the “concentration at which Jak2 kinase activity was dramatically inhibited” value (Jak2) was 6 µM and the “killing of Ramos cells after purging” value [1] was 70%.
